Columns and labels:
[1] = tested on: HBV (HepG2.117 cell line, inducibly HBV producing); experiment: Anti-HBV activity: intracellular HBV DNA by real-time PCR in HepG2.117 cells after 3 days of treatment; type: cell-based, hepatitis B virus; settings: Hepatitis B virus, HepG2.117, 72 h, HepG2.117 cells, intracellular HBV DNA by real-time PCR, 3 days of treatment, mean value; read-out: EC50 (μM, mean value)
How it was run: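 First, HBV replication is induced in HepG2.117 cells by doxycycline absence. Next, serially diluted compound is added for 3 days. Finally, intracellular HBV DNA is quantified by HBV-specific real-time PCR.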

in vitro = type: cell-based; settings: human, HepG2 or HepG2.117 cells, ATPlite, 3-days incubation (not marked with *), mean value
How it was run: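 Luminescent ATP quantitation served as the viability endpoint following a 3- or 4-day incubation with test compounds.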

| Structure (SMILES) | EC50 [1] [µM] | CC50 at 3 days (in vitro) [µM] |
| --- | --- | --- |
| CNC(=O)c1ccc(-n2c(NC(C)C)nc3c(c2=O)C[C@@H](C)N(C(=O)c2ccc(C)c(Cl)c2)C3)cc1 [Compound C514] | 0.61 | > 50 |
| CNC(=O)c1ccc(-n2c(NC(C)C)nc3c(c2=O)C[C@@H](C)N(C(=O)c2ccc(C)c(F)c2)C3)cc1 [Compound C515] | 1.14 | > 50 |
| CNC(=O)c1ccc(-n2c(NC(C)C)nc3c(c2=O)C[C@@H](C)N(C(=O)c2cc4ccc(OC)cc4n2C)C3)cc1 [Compound C516] | 2.68 | > 50 |
| CNC(=O)c1ccc(-n2c(N[C@H](C)c3cnnn3C)nc3c(c2=O)C[C@@H](C)N(C(=O)c2ccc(Cl)c(Cl)c2)C3)cc1 [Compound C517] | > 25 | > 50 |
| CNC(=O)c1ccc(-n2c(N3CCOCC(C)C3)nc3c(c2=O)C[C@@H](C)N(C(=O)c2ccc(Cl)c(Cl)c2)C3)cc1 (stereo partly drawn) [Compound C518] | 0.47 | > 50 |
| CNC(=O)c1ccc(-n2c(NC(C)C)nc3c(c2=O)C[C@@H](C)N(C(=O)c2cc(F)c(Br)c(F)c2)C3)cc1 [Compound C519] | 0.02 | > 50 |
| CNC(=O)c1ccc(-n2c(NC(C)C)nc3c(c2=O)C[C@@H](C)N(C(=O)c2ccc(Cl)cc2F)C3)cc1 [Compound C520] | 3.74 | > 50 |
| CNC(=O)c1ccc(-n2c(NC(C)C)nc3c(c2=O)C[C@@H](C)N(C(=O)c2cc(Cl)c(Br)cc2OC)C3)cc1 [Compound C521] | 7.64 | > 50 |
| CNC(=O)c1ccc(-n2c(NC(C)C)nc3c(c2=O)C[C@@H](C)N(C(=O)c2ccc(Br)cc2OC(F)F)C3)cc1 [Compound C522] | 0.77 | > 50 |
| CNC(=O)c1ccc(-n2c(NC(C)C)nc3c(c2=O)C[C@@H](C)N(C(=O)c2cc(Br)c(Cl)cc2OC)C3)cc1 [Compound C523] | 18 | > 50 |
| CNC(=O)c1ccc(-n2c(NC(C)C)nc3c(c2=O)C[C@@H](C)N(C(=O)c2cc4ccc(OC)cc4s2)C3)cc1 [Compound C524] | 1.36 | > 50 |
| CNC(=O)c1ccc(-n2c(NC(C)C)nc3c(c2=O)C[C@@H](C)N(C(=O)c2ccc(OC(F)(F)F)c(Cl)c2)C3)cc1 [Compound C525] | 0.15 | > 50 |
| CNC(=O)c1cc(-n2c(NC(C)c3ccc(OC(F)(F)F)cc3)nc3c(c2=O)C[C@@H](C)N(C(=O)c2ccc(Cl)c(Cl)c2)C3)[nH]n1 (stereo partly drawn) [Compound C531] | 0.21 | 26.3 |
| C[C@H](Nc1nc2c(c(=O)n1-c1ccc(-n3cccn3)cc1)C[C@@H](C)N(C(=O)c1ccc(Cl)c(Cl)c1)C2)c1ccc(C(F)(F)F)cc1 [Compound C532] | 0.16 | > 50 |
| CNC(=O)c1ccc(-n2c(N[C@@H](C)c3ccc(C(F)(F)F)cc3)nc3c(c2=O)C[C@@H](C)N(C(=O)c2ccc(Cl)c(Cl)c2)C3)cn1 [Compound C533] | 0.11 | > 50 |
| CNC(=O)c1cc(-n2c(N[C@@H](C)c3ccc(C(F)(F)F)cc3)nc3c(c2=O)C[C@@H](C)N(C(=O)c2ccc(Cl)c(Cl)c2)C3)n(C)n1 [Compound C534] | 0.14 | > 50 |
| CNC(=O)c1ccc(-n2c(N[C@@H](C)c3ccc(OC(F)(F)F)cc3)nc3c(c2=O)C[C@@H](C)N(C(=O)c2ccc(Cl)c(Cl)c2)C3)cn1 [Compound C537] | 0.08 | > 50 |
| CNC(=O)c1ccc(-n2c(NCc3nnn(C)c3C(F)(F)F)nc3c(c2=O)C[C@@H](C)N(C(=O)c2ccc(Cl)c(Cl)c2)C3)cc1 [Compound C539] | 5.47 | > 50 |
| CNC(=O)c1ccc(-n2c(NC(C)Cn3cncn3)nc3c(c2=O)C[C@@H](C)N(C(=O)c2ccc(Cl)c(Cl)c2)C3)cc1 (stereo partly drawn) [Compound C540] | 15.8 | > 50 |
| CNC(=O)c1ccc(-n2c(NCc3n[nH]c(C)n3)nc3c(c2=O)C[C@@H](C)N(C(=O)c2ccc(Cl)c(Cl)c2)C3)cc1 [Compound C541] | > 25 | > 50 |
| CNC(=O)c1ccc(-n2c(NCc3nncn3-c3ccccc3)nc3c(c2=O)C[C@@H](C)N(C(=O)c2ccc(Cl)c(Cl)c2)C3)cc1 [Compound C542] | 12.9 | > 50 |
| CNC(=O)c1ccc(-n2c(NCc3cccc(-n4cncn4)c3)nc3c(c2=O)C[C@@H](C)N(C(=O)c2ccc(Cl)c(Cl)c2)C3)cc1 [Compound C543] | 7.02 | > 50 |
| CNC(=O)c1ccc(-n2c(N(C)Cc3ccc4cnccc4c3)nc3c(c2=O)C[C@@H](C)N(C(=O)c2ccc(Cl)c(Cl)c2)C3)cc1 [Compound C544] | 0.6 | 26.7 |
| CNC(=O)c1ccc(-n2c(NCc3nnc(C(C)C)[nH]3)nc3c(c2=O)C[C@@H](C)N(C(=O)c2ccc(Cl)c(Cl)c2)C3)cc1 [Compound C545] | > 25 | > 50 |

| Structure (SMILES) | EC50 [1] [µM] | CC50 at 3 days (in vitro) [µM] |
| --- | --- | --- |
| CNC(=O)c1ccc(-n2c(NCC3CC3C)nc3c(c2=O)C[C@@H](C)N(C(=O)c2ccc(Cl)c(Cl)c2)C3)cc1 (stereo partly drawn) [Compound C547] | 0.97 | 47.2 |
| CNC(=O)c1ccc(-n2c(NC(C)Cc3c[nH]c4ccc(F)cc34)nc3c(c2=O)C[C@@H](C)N(C(=O)c2ccc(Cl)c(Cl)c2)C3)cc1 (stereo partly drawn) [Compound C548] | 0.58 | 10.3 |
| CNC(=O)c1ccc(-n2c(NC3COC(C4CC4)C3)nc3c(c2=O)C[C@@H](C)N(C(=O)c2ccc(Cl)c(Cl)c2)C3)cc1 (stereo partly drawn) [Compound C549] | 1.22 | > 50 |
| CNC(=O)c1ccc(-n2c(NC(C)c3cccs3)nc3c(c2=O)C[C@@H](C)N(C(=O)c2ccc(Cl)c(Cl)c2)C3)cc1 (stereo partly drawn) [Compound C550] | 0.54 | 30.2 |
| CNC(=O)c1ccc(-n2c(NCC(C)c3nncn3C)nc3c(c2=O)C[C@@H](C)N(C(=O)c2ccc(Cl)c(Cl)c2)C3)cc1 (stereo partly drawn) [Compound C551] | > 25 | > 50 |
| CNC(=O)c1ccc(-n2c(NCc3nnn(C)c3C(F)F)nc3c(c2=O)C[C@@H](C)N(C(=O)c2ccc(Cl)c(Cl)c2)C3)cc1 [Compound C552] | > 25 | > 50 |
| CNC(=O)c1ccc(-n2c(NCc3ncnn3-c3ccccc3)nc3c(c2=O)C[C@@H](C)N(C(=O)c2ccc(Cl)c(Cl)c2)C3)cc1 [Compound C553] | 23.7 | > 50 |
| CNC(=O)c1ccc(-n2c(NCc3cc(C(F)F)no3)nc3c(c2=O)C[C@@H](C)N(C(=O)c2ccc(Cl)c(Cl)c2)C3)cc1 [Compound C554] | 1.77 | > 50 |
| CNC(=O)c1ccc(-n2c(NCc3ccc(-n4cncn4)cc3)nc3c(c2=O)C[C@@H](C)N(C(=O)c2ccc(Cl)c(Cl)c2)C3)cc1 [Compound C555] | 1.33 | > 50 |
| CNC(=O)c1ccc(-n2c(NCc3ncn(-c4ccccc4)n3)nc3c(c2=O)C[C@@H](C)N(C(=O)c2ccc(Cl)c(Cl)c2)C3)cc1 [Compound C556] | 0.57 | 25.6 |
| CNC(=O)c1ccc(-n2c(NCc3cnnn3C)nc3c(c2=O)C[C@@H](C)N(C(=O)c2ccc(Cl)c(Cl)c2)C3)cc1 [Compound C557] | > 25 | > 50 |
| CNC(=O)c1ccc(-n2c(N3CCCOC(C)C3)nc3c(c2=O)C[C@@H](C)N(C(=O)c2ccc(Cl)c(Cl)c2)C3)cc1 (stereo partly drawn) [Compound C558] | 0.46 | > 50 |
| CNC(=O)c1ccc(-n2c(NC3CCOC3)nc3c(c2=O)C[C@@H](C)N(C(=O)c2ccc(Cl)c(Cl)c2)C3)cc1 (stereo partly drawn) [Compound C559] | 0.6 | > 50 |
| CNC(=O)c1ccc(-n2c(NCc3cnn(C)n3)nc3c(c2=O)C[C@@H](C)N(C(=O)c2ccc(Cl)c(Cl)c2)C3)cc1 [Compound C560] | 2.59 | > 50 |
| CNC(=O)c1ccc(-n2c(NCc3ncnn3C)nc3c(c2=O)C[C@@H](C)N(C(=O)c2ccc(Cl)c(Cl)c2)C3)cc1 [Compound C561] | > 25 | > 50 |
| CNC(=O)c1ccc(-n2c(N(C)Cc3cnc4ccc(Cl)cn34)nc3c(c2=O)C[C@@H](C)N(C(=O)c2ccc(Cl)c(Cl)c2)C3)cc1 [Compound C562] | 2.87 | 26.8 |
| CNC(=O)c1ccc(-n2c(NC(C)C)nc3c(c2=O)C[C@@H](C)N(C(=O)c2ccc(Br)cc2)C3)cc1 [Compound C563] | 0.26 | > 50 |
| CNC(=O)c1ccc(-n2c(NC(C)C)nc3c(c2=O)C[C@@H](C)N(C(=O)c2cc4c(C)cc(F)cc4[nH]2)C3)cc1 [Compound C564] | 0.02 | 21.7 |
| CNC(=O)c1ccc(-n2c(NC(C)C)nc3c(c2=O)C[C@@H](C)N(C(=O)c2ccc(Br)cc2Cl)C3)cc1 [Compound C565] | 0.68 | > 50 |
| CNC(=O)c1ccc(-n2c(NC(C)C)nc3c(c2=O)C[C@@H](C)N(C(=O)c2cc4c(Cl)c(Cl)ccc4[nH]2)C3)cc1 [Compound C566] | 0.03 | 6.8 |
| CNC(=O)c1ccc(-n2c(NC(C)C)nc3c(c2=O)C[C@@H](C)N(C(=O)c2cc4c(C)cc(OC)cc4[nH]2)C3)cc1 [Compound C567] | 0.67 | 36.5 |
| CNC(=O)c1ccc(-n2c(NC(C)C)nc3c(c2=O)C[C@@H](C)N(C(=O)c2cc4ccc(Br)c(F)c4[nH]2)C3)cc1 [Compound C568] | 0.02 | 25.8 |
| CNC(=O)c1ccc(-n2c(NC(C)C)nc3c(c2=O)C[C@@H](C)N(C(=O)c2cc4c(Br)cccc4[nH]2)C3)cc1 [Compound C569] | 0.01 | 21.4 |
| CNC(=O)c1ccc(-n2c(NC(C)C)nc3c(c2=O)C[C@@H](C)N(C(=O)c2cc4c(C)c(F)ccc4[nH]2)C3)cc1 [Compound C570] | 0.01 | 24.5 |

— US20230091047A1 (priority 2019, published 2023)
